Activity calls are given as the source filed them.
Legend:
[1] = blockade of melanocortin 4 receptor signaling – cell-based, plate reader, cherry pick, counter-screen for LGR2 antagonist project, dose response (AID 743444); assay type: functional;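 further: transfected HEK 293 cells stimulated with alpha-MSH peptide; potency of inhibitors of the alpha-MSH evoked signal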
[2] = reduced cellular PGC1a acetyl-lysine signal – cell-based, cherry-picked samples, dose response (AID 720514); assay type: functional;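 further: potency may reflect raised or lowered acetylation signal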
[3] = molecular target: Delta-type opioid receptor (Homo sapiens, UniProt P41143); test: Counterscreen for agonists of heterodimerization of the mu 1 (OPRM1) and delta 1 (OPRD1) opioid receptors: Luminescence-based cell-based high throughput dose response assay to identify agonists of OPRD1 homodimerization. [Related pubchem assays (depositor defined):AID504326, AID504355, AID504692, AID504904, AID504905]; assay type: functional
[4] = reduction of Shn3 3'UTR-driven luciferase in osteoblasts – cell-based, Clone20 osteoblasts, firefly luciferase, cherry-picked, dose response (AID 624132); assay type: functional;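 further: firefly luciferase luminescence from reporter carrying the Shn3 3'UTR in osteoblasts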
[5] = molecular target: T1, Sentrin-specific protease 6 (Homo sapiens, UniProt Q9GZR1); assay type: functional;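 further: Luminescence-based dose-response confirmatory assay of SENP6 inhibition, following up an ultra-high-throughput screen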
T1 sequence (Q9GZR1 whole entry): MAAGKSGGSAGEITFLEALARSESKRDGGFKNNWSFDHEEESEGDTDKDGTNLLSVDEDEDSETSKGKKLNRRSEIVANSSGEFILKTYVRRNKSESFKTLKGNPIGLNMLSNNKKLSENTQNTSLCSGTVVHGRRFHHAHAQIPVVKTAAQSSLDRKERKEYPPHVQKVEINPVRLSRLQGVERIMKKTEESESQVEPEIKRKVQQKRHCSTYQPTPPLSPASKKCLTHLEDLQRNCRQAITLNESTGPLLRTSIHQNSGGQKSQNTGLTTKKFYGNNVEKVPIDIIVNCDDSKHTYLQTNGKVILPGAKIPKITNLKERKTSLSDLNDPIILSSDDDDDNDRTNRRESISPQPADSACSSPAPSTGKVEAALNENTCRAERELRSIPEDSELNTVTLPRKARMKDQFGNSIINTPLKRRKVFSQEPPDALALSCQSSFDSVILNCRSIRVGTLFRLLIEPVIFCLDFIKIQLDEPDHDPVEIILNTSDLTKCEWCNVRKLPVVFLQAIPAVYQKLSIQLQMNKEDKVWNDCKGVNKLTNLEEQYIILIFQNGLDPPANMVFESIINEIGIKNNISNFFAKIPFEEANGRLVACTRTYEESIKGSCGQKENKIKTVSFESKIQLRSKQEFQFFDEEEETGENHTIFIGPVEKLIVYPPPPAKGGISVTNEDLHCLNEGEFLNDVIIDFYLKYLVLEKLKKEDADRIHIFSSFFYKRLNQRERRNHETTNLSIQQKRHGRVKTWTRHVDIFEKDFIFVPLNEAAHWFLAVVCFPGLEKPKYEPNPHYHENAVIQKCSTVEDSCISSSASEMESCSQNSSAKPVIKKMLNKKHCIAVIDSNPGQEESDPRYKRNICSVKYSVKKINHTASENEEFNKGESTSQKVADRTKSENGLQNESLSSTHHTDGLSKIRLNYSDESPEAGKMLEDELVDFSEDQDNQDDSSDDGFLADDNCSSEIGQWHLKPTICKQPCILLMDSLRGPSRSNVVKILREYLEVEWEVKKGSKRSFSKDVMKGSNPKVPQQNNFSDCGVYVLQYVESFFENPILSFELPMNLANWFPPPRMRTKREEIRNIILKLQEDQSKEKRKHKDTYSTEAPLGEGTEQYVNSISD

[6] = molecular target: Serine/threonine-protein phosphatase PP1-alpha catalytic subunit (Homo sapiens, UniProt P62136); test: inhibition of protein phosphatase 1 activity – biochemical, fluorescence, dose response (AID 2394)
Serine/threonine-protein phosphatase PP1-alpha catalytic subunit, sequence (P62136 whole entry): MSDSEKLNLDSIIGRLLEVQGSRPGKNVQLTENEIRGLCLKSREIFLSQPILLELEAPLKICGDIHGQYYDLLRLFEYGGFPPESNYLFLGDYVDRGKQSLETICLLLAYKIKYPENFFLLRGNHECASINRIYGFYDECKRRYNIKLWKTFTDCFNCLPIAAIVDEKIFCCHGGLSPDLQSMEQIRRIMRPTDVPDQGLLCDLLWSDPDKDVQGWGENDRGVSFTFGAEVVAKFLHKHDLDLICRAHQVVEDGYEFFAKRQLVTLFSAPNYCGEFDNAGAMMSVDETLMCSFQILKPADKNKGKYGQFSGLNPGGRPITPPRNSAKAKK

[7] = molecular target: Tyrosine-protein kinase JAK2 (Homo sapiens, UniProt O60674); assay type: functional;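 further: JAK2 tested as one member of a kinase panel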
[8] = molecular target: Mast/stem cell growth factor receptor Kit (Homo sapiens, UniProt P10721); assay type: functional;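 further: KIT entry within a kinase panel assay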
Mast/stem cell growth factor receptor Kit, sequence (P10721 whole entry): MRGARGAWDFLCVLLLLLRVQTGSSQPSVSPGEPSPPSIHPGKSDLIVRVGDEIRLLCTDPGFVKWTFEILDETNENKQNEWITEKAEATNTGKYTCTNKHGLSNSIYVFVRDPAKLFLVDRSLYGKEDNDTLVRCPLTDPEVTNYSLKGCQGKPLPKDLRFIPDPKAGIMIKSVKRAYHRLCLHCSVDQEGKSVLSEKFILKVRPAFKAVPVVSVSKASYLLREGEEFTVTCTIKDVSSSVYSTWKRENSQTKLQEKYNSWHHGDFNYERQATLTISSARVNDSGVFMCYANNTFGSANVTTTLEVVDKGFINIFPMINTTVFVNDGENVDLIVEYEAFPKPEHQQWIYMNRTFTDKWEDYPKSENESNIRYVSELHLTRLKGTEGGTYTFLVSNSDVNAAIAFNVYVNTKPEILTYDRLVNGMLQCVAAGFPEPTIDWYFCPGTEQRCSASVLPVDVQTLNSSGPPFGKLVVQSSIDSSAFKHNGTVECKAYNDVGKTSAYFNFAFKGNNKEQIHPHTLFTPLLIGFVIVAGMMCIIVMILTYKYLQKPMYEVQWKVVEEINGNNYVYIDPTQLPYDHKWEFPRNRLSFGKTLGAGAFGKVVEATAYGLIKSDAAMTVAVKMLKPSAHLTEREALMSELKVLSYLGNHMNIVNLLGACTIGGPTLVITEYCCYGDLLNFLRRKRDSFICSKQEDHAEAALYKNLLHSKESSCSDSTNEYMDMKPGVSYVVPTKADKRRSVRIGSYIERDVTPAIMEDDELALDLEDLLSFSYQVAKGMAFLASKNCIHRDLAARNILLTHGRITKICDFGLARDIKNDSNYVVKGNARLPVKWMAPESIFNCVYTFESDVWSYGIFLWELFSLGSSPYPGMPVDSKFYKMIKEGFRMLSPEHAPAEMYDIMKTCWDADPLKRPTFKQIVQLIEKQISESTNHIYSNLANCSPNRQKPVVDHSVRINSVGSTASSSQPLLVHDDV

[9] = molecular target: Dual specificity tyrosine-phosphorylation-regulated kinase 1A (Homo sapiens, UniProt Q13627); assay type: functional;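 further: measured against DYRK1A as one member of a broad kinome profiling panel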
[10] = molecular target: Fibroblast growth factor receptor 1 (Homo sapiens, UniProt P11362); assay type: functional
[11] = molecular target: Mitogen-activated protein kinase 8 (Homo sapiens, UniProt P45983); assay type: functional;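 further: value comes from one member of a kinome-wide kinase profiling panel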
Mitogen-activated protein kinase 8, sequence (P45983 whole entry): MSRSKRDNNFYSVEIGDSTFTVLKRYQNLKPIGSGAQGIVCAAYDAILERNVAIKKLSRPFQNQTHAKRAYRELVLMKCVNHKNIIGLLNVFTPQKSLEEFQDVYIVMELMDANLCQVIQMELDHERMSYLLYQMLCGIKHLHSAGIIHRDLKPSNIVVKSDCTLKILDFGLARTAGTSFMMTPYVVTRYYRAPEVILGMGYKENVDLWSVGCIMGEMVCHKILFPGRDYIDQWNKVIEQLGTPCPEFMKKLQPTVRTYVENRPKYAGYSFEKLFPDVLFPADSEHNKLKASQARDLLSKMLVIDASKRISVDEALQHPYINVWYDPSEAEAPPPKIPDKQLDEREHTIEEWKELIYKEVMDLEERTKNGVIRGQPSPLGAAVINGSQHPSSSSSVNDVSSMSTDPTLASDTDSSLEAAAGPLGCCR

[12] = molecular target: 3-phosphoinositide-dependent protein kinase 1 (Homo sapiens, UniProt O15530); assay type: functional;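 further: value comes from the Navigating the Kinome panel, PDPK1 member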
3-phosphoinositide-dependent protein kinase 1, sequence (O15530 whole entry): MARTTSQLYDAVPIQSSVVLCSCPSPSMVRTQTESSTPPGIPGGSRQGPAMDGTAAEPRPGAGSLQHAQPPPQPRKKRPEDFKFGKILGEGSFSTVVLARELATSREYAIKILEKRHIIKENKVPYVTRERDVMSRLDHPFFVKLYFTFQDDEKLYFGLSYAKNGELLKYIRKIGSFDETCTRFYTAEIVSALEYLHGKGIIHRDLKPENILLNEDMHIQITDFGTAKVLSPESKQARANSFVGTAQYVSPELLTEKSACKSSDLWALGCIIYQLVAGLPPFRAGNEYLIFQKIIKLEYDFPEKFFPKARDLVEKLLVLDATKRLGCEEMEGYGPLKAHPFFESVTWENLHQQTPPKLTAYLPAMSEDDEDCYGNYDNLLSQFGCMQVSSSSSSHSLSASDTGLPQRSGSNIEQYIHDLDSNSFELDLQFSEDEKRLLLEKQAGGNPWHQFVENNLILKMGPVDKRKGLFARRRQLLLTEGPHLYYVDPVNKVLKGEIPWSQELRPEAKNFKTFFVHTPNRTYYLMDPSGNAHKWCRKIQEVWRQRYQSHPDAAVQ

[13] = molecular target: Mitogen-activated protein kinase kinase kinase 20 (Homo sapiens, UniProt Q9NYL2); assay type: functional
Aurora kinase A = Aurora kinase A (Homo sapiens, UniProt O14965); assay type: functional;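 further: value from the Navigating the Kinome kinase panel profiling, panel entry STK6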
[14] = molecular target: Cyclin-dependent kinase 1 (Homo sapiens, UniProt P06493); assay type: functional;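 further: Kinome-wide panel profiling, with the target listed as panel member CDC2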
[15] = molecular target: Mitogen-activated protein kinase kinase kinase kinase 2 (Homo sapiens, UniProt Q12851); assay type: functional;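 further: measured as one member of a kinome-wide kinase panel, with MAP4K2 as the panel entry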
[16] = molecular target: Calcium/calmodulin-dependent protein kinase type 1 (Homo sapiens, UniProt Q14012); assay type: functional
Calcium/calmodulin-dependent protein kinase type 1, sequence (Q14012 whole entry): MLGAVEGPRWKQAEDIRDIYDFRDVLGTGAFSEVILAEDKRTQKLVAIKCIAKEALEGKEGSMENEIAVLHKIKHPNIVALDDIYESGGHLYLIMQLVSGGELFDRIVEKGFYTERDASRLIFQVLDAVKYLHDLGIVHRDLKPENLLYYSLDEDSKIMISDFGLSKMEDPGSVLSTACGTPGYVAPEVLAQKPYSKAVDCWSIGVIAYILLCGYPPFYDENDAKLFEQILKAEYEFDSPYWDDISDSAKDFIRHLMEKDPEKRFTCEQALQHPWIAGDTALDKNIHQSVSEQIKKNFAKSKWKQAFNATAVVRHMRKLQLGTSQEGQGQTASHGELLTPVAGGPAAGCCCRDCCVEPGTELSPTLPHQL

[17] = molecular target: High affinity nerve growth factor receptor (Homo sapiens, UniProt P04629); assay type: functional;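 further: NTRK1 tested as one member of a kinome-wide profiling panel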
[18] = molecular target: Rho-associated protein kinase 1 (Homo sapiens, UniProt Q13464); assay type: functional;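 further: measured within a broad kinome-wide panel profiling many kinases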
[19] = molecular target: Tyrosine-protein kinase Blk (Homo sapiens, UniProt P51451); assay type: functional;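 further: obtained as one member of a kinome-wide kinase assay panel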
Tyrosine-protein kinase Blk, sequence (P51451 whole entry): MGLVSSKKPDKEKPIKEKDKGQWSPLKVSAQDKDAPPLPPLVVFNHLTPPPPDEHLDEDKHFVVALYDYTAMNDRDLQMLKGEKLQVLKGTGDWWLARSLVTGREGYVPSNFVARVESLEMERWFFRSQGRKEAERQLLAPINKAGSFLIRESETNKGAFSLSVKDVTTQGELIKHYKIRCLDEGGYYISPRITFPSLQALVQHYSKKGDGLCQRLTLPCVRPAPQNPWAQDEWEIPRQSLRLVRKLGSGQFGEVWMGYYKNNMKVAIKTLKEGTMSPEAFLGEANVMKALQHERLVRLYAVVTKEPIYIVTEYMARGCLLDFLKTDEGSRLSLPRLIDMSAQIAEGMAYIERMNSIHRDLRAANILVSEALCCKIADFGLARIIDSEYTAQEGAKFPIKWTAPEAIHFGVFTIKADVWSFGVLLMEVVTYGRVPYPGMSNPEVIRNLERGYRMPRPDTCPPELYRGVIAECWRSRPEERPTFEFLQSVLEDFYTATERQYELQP

[20] = molecular target: Serine/threonine-protein kinase PLK1 (Homo sapiens, UniProt P53350); assay type: functional;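 further: PLK1 measured as one member of a kinome-wide profiling panel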
[21] = molecular target: Protein-tyrosine kinase 2-beta (Homo sapiens, UniProt Q14289); assay type: functional
[22] = molecular target: cAMP-dependent protein kinase catalytic subunit alpha (Homo sapiens, UniProt P17612); assay type: functional
[23] = molecular target: Serine/threonine-protein kinase Nek4 (Homo sapiens, UniProt P51957); assay type: functional
[24] = molecular target: Mitogen-activated protein kinase 1 (Homo sapiens, UniProt P28482); assay type: functional
[25] = molecular target: Insulin-like growth factor 1 receptor (Homo sapiens, UniProt P08069); test: Navigating the Kinome. Panel member name: IGF1R; assay type: functional
[26] = molecular target: Ribosomal protein S6 kinase alpha-3 (Homo sapiens, UniProt P51812); assay type: functional;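 further: measured within a kinome-wide profiling panel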
Ribosomal protein S6 kinase alpha-3, sequence (P51812 whole entry): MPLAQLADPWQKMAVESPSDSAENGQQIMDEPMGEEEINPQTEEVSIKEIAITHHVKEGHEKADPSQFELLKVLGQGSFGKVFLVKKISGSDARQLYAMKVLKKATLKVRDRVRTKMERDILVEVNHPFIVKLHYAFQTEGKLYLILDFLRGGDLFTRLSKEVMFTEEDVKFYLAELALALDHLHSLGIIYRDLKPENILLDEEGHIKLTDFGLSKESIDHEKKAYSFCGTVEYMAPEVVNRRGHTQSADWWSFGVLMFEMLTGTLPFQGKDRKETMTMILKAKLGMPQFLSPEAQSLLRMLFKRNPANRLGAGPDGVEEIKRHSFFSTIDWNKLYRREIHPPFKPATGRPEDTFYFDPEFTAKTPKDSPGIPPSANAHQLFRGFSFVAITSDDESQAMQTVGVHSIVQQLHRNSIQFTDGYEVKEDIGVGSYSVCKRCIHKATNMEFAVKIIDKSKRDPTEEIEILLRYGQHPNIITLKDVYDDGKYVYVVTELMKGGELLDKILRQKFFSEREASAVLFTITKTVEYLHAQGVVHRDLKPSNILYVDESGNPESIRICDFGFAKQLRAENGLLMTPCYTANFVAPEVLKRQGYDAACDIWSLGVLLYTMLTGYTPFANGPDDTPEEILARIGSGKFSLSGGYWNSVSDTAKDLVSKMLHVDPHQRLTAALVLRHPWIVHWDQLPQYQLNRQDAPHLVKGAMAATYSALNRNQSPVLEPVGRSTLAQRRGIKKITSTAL

[27] = molecular target: Serine/threonine-protein kinase Chk2 (Homo sapiens, UniProt O96017); assay type: functional;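 further: CHEK2 entry within a kinome-wide screening panel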
Serine/threonine-protein kinase Chk2, sequence (O96017 whole entry): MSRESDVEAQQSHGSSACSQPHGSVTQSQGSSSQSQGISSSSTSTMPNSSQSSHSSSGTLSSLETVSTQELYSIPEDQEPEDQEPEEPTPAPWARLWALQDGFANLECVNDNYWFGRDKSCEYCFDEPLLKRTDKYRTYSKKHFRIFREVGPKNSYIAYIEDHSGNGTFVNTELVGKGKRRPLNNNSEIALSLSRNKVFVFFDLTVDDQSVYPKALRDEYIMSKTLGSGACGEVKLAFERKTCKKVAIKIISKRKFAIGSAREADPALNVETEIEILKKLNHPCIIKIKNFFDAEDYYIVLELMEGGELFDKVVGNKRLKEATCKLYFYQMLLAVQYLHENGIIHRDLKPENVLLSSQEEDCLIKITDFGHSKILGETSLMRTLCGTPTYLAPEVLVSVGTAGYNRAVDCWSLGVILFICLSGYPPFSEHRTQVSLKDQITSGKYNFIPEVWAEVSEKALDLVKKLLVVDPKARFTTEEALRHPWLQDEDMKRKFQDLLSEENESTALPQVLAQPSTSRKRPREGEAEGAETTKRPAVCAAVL

[28] = molecular target: Maternal embryonic leucine zipper kinase (Homo sapiens, UniProt Q14680); assay type: functional
[29] = molecular target: Tyrosine-protein kinase Lck (Homo sapiens, UniProt P06239); assay type: functional;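 further: lck was assayed as one member of a kinase panel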
Tyrosine-protein kinase Lck, sequence (P06239 whole entry): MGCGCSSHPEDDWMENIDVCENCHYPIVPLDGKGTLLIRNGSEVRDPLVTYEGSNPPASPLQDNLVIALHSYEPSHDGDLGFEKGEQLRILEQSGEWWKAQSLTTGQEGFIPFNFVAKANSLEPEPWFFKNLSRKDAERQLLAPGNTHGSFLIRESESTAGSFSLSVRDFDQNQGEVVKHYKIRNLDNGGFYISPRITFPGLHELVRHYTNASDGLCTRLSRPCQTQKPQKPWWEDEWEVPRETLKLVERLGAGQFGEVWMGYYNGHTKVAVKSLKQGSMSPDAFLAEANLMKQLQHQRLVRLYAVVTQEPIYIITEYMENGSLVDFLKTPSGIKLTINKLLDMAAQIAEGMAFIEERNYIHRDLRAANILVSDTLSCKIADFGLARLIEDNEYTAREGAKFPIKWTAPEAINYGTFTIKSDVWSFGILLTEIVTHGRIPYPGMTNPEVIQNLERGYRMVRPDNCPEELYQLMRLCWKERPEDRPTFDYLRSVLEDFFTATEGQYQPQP

SMILES: CCCc1nc2c(=O)n(C)c(=O)nc-2n(C)n1
- AC50 [1]: 4.6 µM (active)
- AC50 [2]: 2.95 µM (active)
- EC50 [3]: > 92.5 µM (inactive)
- AC50 [4]: 2.17 µM (active)

SMILES: CC(=O)c1ccc(NC2=C(N3CCOCC3)C(=O)c3ccccc3C2=O)cc1
- IC50 [5]: 11.6 µM (active)
- IC50 [6]: > 67 µM (not active)

SMILES: COc1cc2ncn(-c3cc(OCc4ccccc4C(F)(F)F)c(C(N)=O)s3)c2cc1OC [GW843682X]
- Ki [7]: 1.26 µM (active)
- Ki [8]: 0.126 µM (active)
- Ki [9]: 5.01 µM (active)
- Ki [10]: 3.98 µM (active)
- Ki [11]: > 3.16 µM (inactive)
- Ki [12]: > 3.98 µM (inactive)
- Ki [13]: > 7.94 µM (inactive)
- Ki (Aurora kinase A): > 3.98 µM (inactive)
- Ki [14]: > 7.94 µM (inactive)
- Ki [15]: > 6.31 µM (inactive)
- Ki [16]: > 7.94 µM (inactive)
- Ki [17]: 0.398 µM (active)
- Ki [18]: > 10 µM (inactive)
- Ki [19]: > 1.58 µM (inactive)
- Ki [20]: 0.0126 µM (active)
- Ki [21]: 0.158 µM (active)
- Ki [22]: > 7.94 µM (inactive)
- Ki [23]: > 6.31 µM (inactive)
- Ki [24]: > 7.94 µM (inactive)
- Ki [25]: > 1 µM (inactive)
- Ki [26]: 7.94 µM (active)
- Ki [27]: > 5.01 µM (inactive)
- Ki [28]: 0.158 µM (active)
- Ki [29]: 2 µM (active)
